This assay deals with MV-4-11 cells. In words: Gene expression microarray analysis (Affymetrix PrimeView) and GSEA. Particulars: MV-4-11 cells, 48 hours. The format is cell-based, human. Set-up: RFU PODN (11730768_x_at) / Fold change /veh PODN (11730768_x_at) / RFU LINC00158 (11744669_a_at) / Fold change /veh LINC00158 (11744669_a_at) / RFU DUSP10 (11751237_a_at) / Fold change /veh DUSP10 (11751237_a_at) / RFU ID3 (11757404_x_at) / Fold change /veh ID3 (11757404_x_at) / RFU PLEKHG5 (11737974_s_at) / Fold change /veh PLEKHG5 (11737974_s_at) / RFU LRRC4B (11730491_at) / Fold change /veh LRRC4B (11730491_at) / RFU GIMAP4 (11747438_a_at) / Fold change /veh GIMAP4 (11747438_a_at) / RFU KRT8 (11758183_x_at) / Fold change /veh KRT8 (11758183_x_at) / RFU CNN1 (11734310_a_at) / Fold change /veh CNN1 (11734310_a_at) / RFU VPS37D (11726825_at) / Fold change /veh VPS37D (11726825_at) / RFU C10orf10 (11716522_x_at) / Fold change /veh C10orf10 (11716522_x_at) / RFU KIR2DL2 /// KIR2DL4 /// KIR2DL5A /// KIR2DL5B /// KIR2DS1 /// KIR2DS2 /// KIR2DS3 /// KIR2DS4 /// KIR3DL3 /// KIR3DL3 /// KIR3DS1 (11738374_at) / Fold change /veh KIR2DL2 /// KIR2DL4 /// KIR2DL5A /// KIR2DL5B /// KIR2DS1 /// KIR2DS2 /// KIR2DS3 /// KIR2DS4 /// KIR3DL3 /// KIR3DL3 /// KIR3DS1 (11738374_at) / RFU C1QL1 (11718748_at) / Fold change /veh C1QL1 (11718748_at) / RFU TMPRSS4 (11747572_a_at) / Fold change /veh TMPRSS4 (11747572_a_at) / RFU HAMP (11756126_x_at) / Fold change /veh HAMP (11756126_x_at) / RFU RNFT2 (11725882_a_at) / Fold change /veh RNFT2 (11725882_a_at) / RFU NR4A2 (11747474_a_at) / Fold change /veh NR4A2 (11747474_a_at) / RFU ABCC12 (11746883_a_at) / Fold change /veh ABCC12 (11746883_a_at) / RFU TMEM136 (11760407_x_at) / Fold change /veh TMEM136 (11760407_x_at) / RFU CLDN22 /// WWC2 (11732394_at) / Fold change /veh CLDN22 /// WWC2 (11732394_at) / RFU HLA-DPB1 (11760878_x_at) / Fold change /veh HLA-DPB1 (11760878_x_at) / RFU SPINT1 (11716480_a_at) / Fold change /veh SPINT1 (11716480_a_at) / RFU GAP43 (11754022_s_at) / Fold change /veh GAP43 (11754022_s_at) / RFU A4GNT (11735810_at) / Fold change /veh A4GNT (11735810_at) / RFU PRB3 (11715151_x_at) / Fold change /veh PRB3 (11715151_x_at) / RFU TUBB4B (11761932_at) / Fold change /veh TUBB4B (11761932_at) / RFU CAPN14 (11732068_a_at) / Fold change /veh CAPN14 (11732068_a_at) / RFU TMCC2 (11721928_a_at) / Fold change /veh TMCC2 (11721928_a_at) / RFU IRGQ (11745062_a_at) / Fold change /veh IRGQ (11745062_a_at) / RFU FAM174B (11720279_a_at) / Fold change /veh FAM174B (11720279_a_at) / RFU TMPRSS4 (11748680_a_at) / Fold change /veh TMPRSS4 (11748680_a_at) / RFU FAM212B (11763350_a_at) / Fold change /veh FAM212B (11763350_a_at) / RFU PLEKHG5 (11743358_a_at) / Fold change /veh PLEKHG5 (11743358_a_at) / RFU ZSCAN30 (11745921_a_at) / Fold change /veh ZSCAN30 (11745921_a_at) / RFU CMKLR1 (11741424_a_at) / Fold change /veh CMKLR1 (11741424_a_at) / RFU LOC101060620 /// MAPK8IP1 (11723275_at) / Fold change /veh LOC101060620 /// MAPK8IP1 (11723275_at) / RFU SPTSSB (11747773_x_at) / Fold change /veh SPTSSB (11747773_x_at) / RFU PRSS12 (11739890_at) / Fold change /veh PRSS12 (11739890_at) / RFU BIN1 (11741810_x_at) / Fold change /veh BIN1 (11741810_x_at) / RFU WNT11 (11732464_a_at) / Fold change /veh WNT11 (11732464_a_at) / RFU C10orf10 (11716521_a_at) / Fold change /veh C10orf10 (11716521_a_at) / RFU C5orf56 (11738089_at) / Fold change /veh C5orf56 (11738089_at) / RFU CYB561 (11721691_x_at) / Fold change /veh CYB561 (11721691_x_at) / RFU ANKRD19P (11752326_a_at) / Fold change /veh ANKRD19P (11752326_a_at) / RFU OR2T12 /// OR2T33 /// OR2T8 (11738714_s_at) / Fold change /veh OR2T12 /// OR2T33 /// OR2T8 (11738714_s_at) / RFU VCAN (11748164_a_at) / Fold change /veh VCAN (11748164_a_at) / RFU JSRP1 (11732532_at) / Fold change /veh JSRP1 (11732532_at) / RFU KRTAP10-11 (11738290_x_at) / Fold change /veh KRTAP10-11 (11738290_x_at) / RFU MYO3A (11730013_a_at) / Fold change /veh MYO3A (11730013_a_at) / RFU EBF3 (11725865_a_at) / Fold change /veh EBF3 (11725865_a_at) / RFU CAMK2N1 (11719241_x_at) / Fold change /veh CAMK2N1 (11719241_x_at) / RFU C5orf56 (11738088_a_at) / Fold change /veh C5orf56 (11738088_a_at) / RFU OLFML3 (11715873_a_at) / Fold change /veh OLFML3 (11715873_a_at) / RFU LOC100653217 /// NTM (11731650_a_at) / Fold change /veh LOC100653217 /// NTM (11731650_a_at) / RFU MAPK11 (11762145_a_at) / Fold change /veh MAPK11 (11762145_a_at) / RFU FIZ1 (11724087_x_at) / Fold change /veh FIZ1 (11724087_x_at) / RFU OASL (11726364_x_at) / Fold change /veh OASL (11726364_x_at) / RFU SOX15 (11748057_x_at) / Fold change /veh SOX15 (11748057_x_at) / RFU CD79A (11719716_a_at) / Fold change /veh CD79A (11719716_a_at) / RFU HIST1H1D (11736915_at) / Fold change /veh HIST1H1D (11736915_at) / RFU CASKIN2 (11723855_a_at) / Fold change /veh CASKIN2 (11723855_a_at) / RFU LOC730098 (11760151_x_at) / Fold change /veh LOC730098 (11760151_x_at) / RFU OR4N2 (11742367_at) / Fold change /veh OR4N2 (11742367_at) / RFU PRRT2 (11749266_a_at) / Fold change /veh PRRT2 (11749266_a_at) / RFU SNX32 (11753110_a_at) / Fold change /veh SNX32 (11753110_a_at) / RFU CDHR5 (11726645_a_at) / Fold change /veh CDHR5 (11726645_a_at) / RFU RCAN1 (11760418_a_at) / Fold change /veh RCAN1 (11760418_a_at) / RFU FAM167A (11723789_a_at) / Fold change /veh FAM167A (11723789_a_at) / RFU FAM26E (11764081_at) / Fold change /veh FAM26E (11764081_at) / RFU ISYNA1 (11749810_s_at) / Fold change /veh ISYNA1 (11749810_s_at) / RFU ACY1 (11761880_at) / Fold change /veh ACY1 (11761880_at) / RFU 11764098_at / Fold change /veh 11764098_at / RFU SAMD14 (11745864_x_at) / Fold change /veh SAMD14 (11745864_x_at) / RFU NPB (11741838_a_at) / Fold change /veh NPB (11741838_a_at) / RFU TMPRSS6 (11731388_a_at) / Fold change /veh TMPRSS6 (11731388_a_at) / RFU KRTAP10-2 (11738614_at) / Fold change /veh KRTAP10-2 (11738614_at) / RFU ARHGAP8 /// PRR5-ARHGAP8 (11727945_x_at) / Fold change /veh ARHGAP8 /// PRR5-ARHGAP8 (11727945_x_at) / RFU KRTAP5-7 /// NADSYN1 (11734609_at) / Fold change /veh KRTAP5-7 /// NADSYN1 (11734609_at) / RFU RASL12 (11751679_a_at) / Fold change /veh RASL12 (11751679_a_at) / RFU CDKN2B (11736163_a_at) / Fold change /veh CDKN2B (11736163_a_at) / RFU PRF1 (11729649_at) / Fold change /veh PRF1 (11729649_at) / RFU, ZNF638 /// ZNF638-IT1 / Fold change vs veh, ZNF638 /// ZNF638-IT1 / RFU, PANK3 / Fold change vs veh, PANK3 / RFU, SH3YL1 / Fold change vs veh, SH3YL1 / RFU, ZEB2 / Fold change vs veh, ZEB2 / RFU, NRIP1 / Fold change vs veh, NRIP1 / RFU, PTTG1IP / Fold change vs veh, PTTG1IP / RFU, CAPN2 / Fold change vs veh, CAPN2 / RFU, MED14 / Fold change vs veh, MED14 / RFU, SNORA58 / Fold change vs veh, SNORA58 / RFU, C1orf63 / Fold change vs veh, C1orf63 / RFU, LRRFIP1 / Fold change vs veh, LRRFIP1 / RFU, NDUFAF7 / Fold change vs veh, NDUFAF7 / RFU, SLC12A2 / Fold change vs veh, SLC12A2 / RFU, IBTK / Fold change vs veh, IBTK / RFU, ESF1 / Fold change vs veh, ESF1 / Fold change vs veh, TMEM50B / RFU, TAOK1 / Fold change vs veh, TAOK1 / RFU, ACBD3 / Fold change vs veh, ACBD3 / RFU, TMA16 / Fold change vs veh, TMA16 / RFU, RWDD3 / Fold change vs veh, RWDD3 / RFU, BCAT1 / Fold change vs veh, BCAT1 / RFU, EDEM3 / Fold change vs veh, EDEM3 / RFU, TMEM33 / Fold change vs veh, TMEM33 / RFU, WDR75 / Fold change vs veh, WDR75 / RFU, AHCTF1 / Fold change vs veh, AHCTF1 / RFU, TFRC / Fold change vs veh, TFRC / RFU, ZDHHC17 / Fold change vs veh, ZDHHC17 / RFU, NOM1 / Fold change vs veh, NOM1 / RFU, ARL8B / Fold change vs veh, ARL8B / RFU, ZBTB11 / Fold change vs veh, ZBTB11 / RFU, TAMM41 / Fold change vs veh, TAMM41 / RFU, KIAA1704 /// LOC100996395 / Fold change vs veh, KIAA1704 /// LOC100996395 / RFU, ING1 / Fold change vs veh, ING1 / RFU, TRMT61B / Fold change vs veh, TRMT61B / RFU, FUBP3 / Fold change vs veh, FUBP3 / RFU, TP53 / Fold change vs veh, TP53 / RFU, TNKS2 / Fold change vs veh, TNKS2 / RFU, ZFP14 / Fold change vs veh, ZFP14 / RFU, ACTR2 / Fold change vs veh, ACTR2 / RFU, PPP3R1 / Fold change vs veh, PPP3R1 / RFU, PIK3R1 / Fold change vs veh, PIK3R1 / RFU, HNRNPA1 / Fold change vs veh, HNRNPA1 / RFU, RNF170 / Fold change vs veh, RNF170 / RFU, ZNF28 / Fold change vs veh, ZNF28 / RFU, RNGTT / Fold change vs veh, RNGTT / RFU, OGT / Fold change vs veh, OGT / RFU, BRD1 / Fold change vs veh, BRD1 / RFU, MARS / Fold change vs veh, MARS / RFU, ZNF655 / Fold change vs veh, ZNF655 / RFU, FAHD1 / Fold change vs veh, FAHD1 / RFU, BDP1 / Fold change vs veh, BDP1 / RFU, LRRCC1 / Fold change vs veh, LRRCC1 / RFU, ARID1A / Fold change vs veh, ARID1A / RFU, ZNF146 / Fold change vs veh, ZNF146 / RFU, ZNF330 / Fold change vs veh, ZNF330 / RFU, GPN3 / Fold change vs veh, GPN3 / RFU, C9orf123 / Fold change vs veh, C9orf123 / RFU, N4BP2L2 / Fold change vs veh, N4BP2L2 / RFU, ARFIP1 / Fold change vs veh, ARFIP1 / RFU, FAM179B / Fold change vs veh, FAM179B / RFU, BCL10 / Fold change vs veh, BCL10 / RFU, UHRF1BP1L / Fold change vs veh, UHRF1BP1L / RFU, BET1 / Fold change vs veh, BET1 / RFU, CNOT2 / Fold change vs veh, CNOT2 / RFU, ZNF268 / Fold change vs veh, ZNF268 / Fold change vs veh, ZNF507 / RFU, DGCR2 / Fold change vs veh, DGCR2 / RFU, WDSUB1 / Fold change vs veh, WDSUB1 / Fold change vs veh, HSP90B1 /// MIR3652 / RFU, ADSS / Fold change vs veh, ADSS / RFU, GK / Fold change vs veh, GK / RFU, ZNF148 / Fold change vs veh, ZNF148 / RFU, TAF9 / Fold change vs veh, TAF9 / RFU, SLC1A5 / Fold change vs veh, SLC1A5 / RFU, SLMO2 / Fold change vs veh, SLMO2 / RFU, ABCC4 / Fold change vs veh, ABCC4 / RFU, LOC101060439 /// RAP1B / Fold change vs veh, LOC101060439 /// RAP1B / RFU, RFX7 / Fold change vs veh, RFX7 / RFU, GTPBP10 / Fold change vs veh, GTPBP10 / RFU, CNEP1R1 / Fold change vs veh, CNEP1R1 / RFU, BIVM-ERCC5 /// ERCC5 / Fold change vs veh, BIVM-ERCC5 /// ERCC5 / RFU, ILF3 / Fold change vs veh, ILF3 / RFU 11762660_at / Fold change /veh 11762660_at / RFU VCAN (11757783_s_at) / Fold change /veh VCAN (11757783_s_at) / RFU DDX43 (11728927_at) / Fold change /veh DDX43 (11728927_at) / RFU KRT8 (11758188_x_at) / Fold change /veh KRT8 (11758188_x_at) / RFU NKD1 (11759106_at) / Fold change /veh NKD1 (11759106_at) / RFU SRD5A1 (11742802_a_at) / Fold change /veh SRD5A1 (11742802_a_at) / RFU TPSAB1 /// TPSB2 (11721975_s_at) / Fold change /veh TPSAB1 /// TPSB2 (11721975_s_at) / RFU GSTM3 (11746129_a_at) / Fold change /veh GSTM3 (11746129_a_at) / RFU IL23R (11737362_x_at) / Fold change /veh IL23R (11737362_x_at) / RFU TMEM51 (11727254_a_at) / Fold change /veh TMEM51 (11727254_a_at) / RFU PIWIL2 (11732686_x_at) / Fold change /veh PIWIL2 (11732686_x_at) / RFU ORM1 (11744905_x_at) / Fold change /veh ORM1 (11744905_x_at) / RFU CCDC152 (11743942_at) / Fold change /veh CCDC152 (11743942_at) / RFU ECM1 (11717891_a_at) / Fold change /veh ECM1 (11717891_a_at) / RFU IL23R (11748794_a_at) / Fold change /veh IL23R (11748794_a_at) / RFU TNFAIP8L3 (11732012_x_at) / Fold change /veh TNFAIP8L3 (11732012_x_at) / RFU MBOAT4 (11741988_at) / Fold change /veh MBOAT4 (11741988_at) / RFU 11764193_at / Fold change /veh 11764193_at / RFU TMEM53 (11763286_at) / Fold change /veh TMEM53 (11763286_at) / RFU MAGEB2 (11727129_at) / Fold change /veh MAGEB2 (11727129_at) / RFU TMEM200A (11744735_a_at) / Fold change /veh TMEM200A (11744735_a_at) / RFU CCDC152 (11751479_a_at) / Fold change /veh CCDC152 (11751479_a_at) / RFU FAM211A (11726209_a_at) / Fold change /veh FAM211A (11726209_a_at) / RFU RGS16 (11746705_a_at) / Fold change /veh RGS16 (11746705_a_at) / RFU VCAN (11755009_s_at) / Fold change /veh VCAN (11755009_s_at) / RFU RHOB (11743442_s_at) / Fold change /veh RHOB (11743442_s_at) / RFU RGS16 (11720943_a_at) / Fold change /veh RGS16 (11720943_a_at) / RFU RGS16 (11720944_at) / Fold change /veh RGS16 (11720944_at) / RFU, VPS4B / Fold change vs veh, VPS4B / RFU, CREB1 / Fold change vs veh, CREB1 / RFU, DNAJC13 / Fold change vs veh, DNAJC13 / RFU, GNAQ / Fold change vs veh, GNAQ / RFU, CDK5R1 / Fold change vs veh, CDK5R1 / RFU, ZRANB3 / Fold change vs veh, ZRANB3 / RFU, CUL4A / Fold change vs veh, CUL4A / RFU, CCNY / Fold change vs veh, CCNY / RFU, UFL1 / Fold change vs veh, UFL1 / RFU, COG3 / Fold change vs veh, COG3 / RFU, DIAPH2 / Fold change vs veh, DIAPH2 / RFU, SKA2 / Fold change vs veh, SKA2 / RFU, AFF3 / Fold change vs veh, AFF3 / RFU, LMF1 / Fold change vs veh, LMF1 / RFU, IPO11 / Fold change vs veh, IPO11 / RFU, DFFB / Fold change vs veh, DFFB / RFU, FOXP1 / Fold change vs veh, FOXP1 / RFU, CARD8 / Fold change vs veh, CARD8 / RFU, STRN3 / Fold change vs veh, STRN3 / RFU, ADK / Fold change vs veh, ADK / RFU, RASSF2 / Fold change vs veh, RASSF2 / RFU, WIPF1 / Fold change vs veh, WIPF1 / RFU, LARP1B / Fold change vs veh, LARP1B / RFU, RASA1 / Fold change vs veh, RASA1 / RFU, RB1 / Fold change vs veh, RB1 / RFU, PPFIA1 / Fold change vs veh, PPFIA1 / RFU, MAT2A / Fold change vs veh, MAT2A / RFU, CCT5 / Fold change vs veh, CCT5 / RFU, WDR92 / Fold change vs veh, WDR92 / RFU, CUX1 / Fold change vs veh, CUX1 / RFU, TTC7A / Fold change vs veh, TTC7A / RFU, TMEM135 / Fold change vs veh, TMEM135 / RFU, DEPTOR / Fold change vs veh, DEPTOR / RFU, CPM / Fold change vs veh, CPM / RFU, DNAJB6 / Fold change vs veh, DNAJB6 / RFU, CACNA2D3 / Fold change vs veh, CACNA2D3 / RFU, DTX4 / Fold change vs veh, DTX4 / RFU, TFCP2 / Fold change vs veh, TFCP2 / RFU, GMCL1 /// GMCL1P1 / Fold change vs veh, GMCL1 /// GMCL1P1 / RFU, AEBP2 / Fold change vs veh, AEBP2 / RFU, SNHG1 /// SNORD22 /// SNORD25 /// SNORD26 /// SNORD27 /// SNORD28 /// SNORD29 /// SNORD31 / Fold change vs veh, SNHG1 /// SNORD22 /// SNORD25 /// SNORD26 /// SNORD27 /// SNORD28 /// SNORD29 /// SNORD31 / Fold change (Aza/veh), C12orf56 (ProbeSet 11735607_a_at) / Fold change (ACY-1035/veh), C12orf56 (ProbeSet 11735607_a_at) / Fold change (Aza/veh), FGFR1OP (ProbeSet 11751329_s_at) / Fold change (ACY-1035/veh), FGFR1OP (ProbeSet 11751329_s_at) / Fold change (Aza/veh), VPS36 (ProbeSet 11739960_a_at) / Fold change (ACY-1035/veh), VPS36 (ProbeSet 11739960_a_at) / RFU SYPL1 (11715823_x_at) / Fold change /veh SYPL1 (11715823_x_at) / RFU IGFBP7 (11715501_s_at) / Fold change /veh IGFBP7 (11715501_s_at) / RFU REEP3 (11722064_at) / Fold change /veh REEP3 (11722064_at) / RFU IGLL1 (11728026_x_at) / Fold change /veh IGLL1 (11728026_x_at): dose or concentration left out as unconfirmed.

Take `Nc1ncn([C@@H]2O[C@H](CO)[C@@H](O)[C@H]2O)c(=O)n1` [azacitidine]: the “RFU GAP43 (11754022_s_at)” value worked out at 65.19 RFU.

For the origin of these results see PMC5218480 (PLoS ONE, 2017).
